From patent US9974761B2, “Medications for deposition on biological surfaces” (The Procter & Gamble Company, priority 2014, dated 2018)
Blank lines part the entries; values can stand above or below the compound they belong to.

Legend:
human TRPA1 = molecular target: T1, human TRPA1 (Homo sapiens, UniProt O75762, K186N/R3C/R58T); experiment: TRPA1 Protocol-FLIPR Assay (intracellular Ca2+); type: cell-based
T1 construct: expressed in transfected cells
Method: To determine whether TRPA1 is activated, the intracellular calcium ion (Ca^2+) level from transfected cells with the TRPA1 receptor sequence (SEQ ID NO: 2) was measured. HEK-293 cells stably transfected with human TRPA1 were grown in 15 ml growth medium (high glucose DMEM (Dulbecco's Modification of Eagle's Medium) supplemented with 10% FBS (fetal bovine serum), 100 μg/ml penicillin/streptomycin, 100 μg/ml G418) in a 75cm^2 flask for 3 days at 37° C. in a mammalian cell culture incubator set at 5% CO2. Cells were detached with addition of 10 ml of PBS (phosphate buffered saline) by hand shaking gently and transferred to a 50 ml tube and centrifuged at 850 rpm for 3 minutes to remove PBS. After centrifugation, a pellet of cells was formed in the bottom of the tube separating them from the supernatant solution. The supernatant was discarded and the cell pellet suspended in 1 ml of fresh growth medium to which 5 μl (12.5 μg) of Fluo-4 AM (Molecular Probes, Inc.) calcium indicator was added and incubated for 30 minutes with gentle shaking. At the end of the 30 minutes, 45 ml of assay buffer (1× HBSS (Hank's Balanced Salt Solution), 20 mM HEPES (4-(2-Hydroxyethyl)-1-piperazineethanesulfonic acid)) was added to wash the cells and the resulting combination was then centrifuged at 850 rpm for 3 minutes to remove excess buffer and Fluo-4 AM calcium indicator.
The pelleted cells were re-suspended in 10 ml assay buffer and 90 μll aliquots (˜50,000 cells) per well delivered to a 96-well assay was placed into a fluorometric imaging plate reader (FLIPR TETRA from Molecular Devices) and basal fluorescence recorded (excitation wave length 488 nm and emission wave length 510 nm). Then 20 μl of the test compound being tested was added and fluorescence recorded (TABLES 2 and 3).
To determine if a compound was an agonist the direct effect of a test compound was determined. If any increase in fluorescence over background was noted, then the compound was considered an agonist. The agonist activity was expressed relative to that observed with a benchmark agonist such as 50 μm allyl isothiocyanate for TRPAL

human TRPV1 = molecular target: T2, human TRPV1 (Homo sapiens, UniProt Q8NER1, M315I/T336M); experiment: TRPV1 Protocol-FLIPR Assay (intracellular Ca2+); type: cell-based
T2 construct: expressed in transfected cells
T2 sequence (Q8NER1 whole entry M315I/T336M): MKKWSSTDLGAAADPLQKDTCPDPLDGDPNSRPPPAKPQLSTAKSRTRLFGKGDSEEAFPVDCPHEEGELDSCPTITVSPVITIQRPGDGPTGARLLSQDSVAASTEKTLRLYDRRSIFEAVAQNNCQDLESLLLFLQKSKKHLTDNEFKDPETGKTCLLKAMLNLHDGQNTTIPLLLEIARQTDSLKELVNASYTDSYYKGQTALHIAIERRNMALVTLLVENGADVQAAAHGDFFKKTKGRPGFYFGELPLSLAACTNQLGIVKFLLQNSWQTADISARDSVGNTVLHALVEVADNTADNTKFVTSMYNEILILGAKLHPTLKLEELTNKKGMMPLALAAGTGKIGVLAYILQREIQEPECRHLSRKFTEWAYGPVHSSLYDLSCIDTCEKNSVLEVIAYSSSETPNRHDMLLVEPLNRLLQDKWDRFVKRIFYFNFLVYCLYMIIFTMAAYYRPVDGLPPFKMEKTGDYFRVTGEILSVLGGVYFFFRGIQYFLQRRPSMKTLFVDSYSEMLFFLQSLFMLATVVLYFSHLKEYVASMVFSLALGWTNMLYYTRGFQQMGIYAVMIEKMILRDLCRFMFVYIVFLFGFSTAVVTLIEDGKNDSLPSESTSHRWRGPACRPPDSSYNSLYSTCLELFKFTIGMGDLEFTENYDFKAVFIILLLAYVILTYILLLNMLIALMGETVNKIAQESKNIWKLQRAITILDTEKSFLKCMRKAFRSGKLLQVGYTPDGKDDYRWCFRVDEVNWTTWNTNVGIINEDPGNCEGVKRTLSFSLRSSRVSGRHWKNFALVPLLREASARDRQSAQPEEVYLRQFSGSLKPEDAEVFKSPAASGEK
Method: To determine whether TRPV1 was activated, the intracellular calcium ion (Ca^+2) levels from cells transfected with the TRPV1 receptor sequence (SEQ ID NO: 1) were measured. […] Cells were detached with addition of 10 ml of PBS (phosphate buffered saline) by gentle hand shaking. Cells were transferred to a 50 ml tube and centrifuged at 850 rpm for 3 minutes to remove PBS. After centrifugation, a pellet of cells formed in the bottom of the tube separating them from the supernatant solution. The supernatant was discarded and the cell pellet suspended in 1 ml of fresh growth medium to which 5 μl (12.5 μg) of Fluo-4 AM (Molecular Probes, Inc., Eugene, Oreg.) calcium indicator was added and incubated for 30 minutes with gentle shaking. […] The pelleted cells were re-suspended in 10 ml assay buffer and 90 μl aliquots (˜50,000 cells) per well delivered to a 96-well assay plate was placed into a fluorometric imaging plate reader (FLIPR TETRA from Molecular Devices) and basal fluorescence recorded (excitation wave length 488 nm and emission wave length 510 nm). Then 20 μl of a test compound-being tested as a TRPV1 receptor agonist was added and fluorescence recorded. The observed value with compound pretreated cells was compared with buffer control; the difference between the two indicating a measure of effect of the test compound on the agonist (TABLES 2 and 3). If any increase in fluorescence over background was noted, then the compound was considered an agonist.

[1] = concentration where the cooling effect could be clearly recognized; Emberger and Hopp 1987; cited from earlier work
[2] = Sensation reported by panelists; type: in vivo; details: perceived sensation, in words
human TRPM8 [3] = molecular target: T3, human TRPM8 (UniProt Q8R4D5); experiment: TRPM8 Protocol-FLIPR Assay (intracellular Ca2+); type: cell-based
T3 construct: Receptor Activity TRPM8; Receptor Activity TRPM8; other: test compound at 0.001%; relative to WS5 control (30 microMolar); HEK 293 cells; other: test compound at 0.004%; other: test compound at 5.2E−5%; relative to WS5 control
Method: (§1) To determine whether TRPM8 is activated, the intracellular calcium ion (Ca^2+) level was measured from transfected cells with the TRPM8 receptor sequence (SEQ ID NO: 3). HEK-293 (human embryonic kidney) cells stably transfected with human TRPM8 were grown in 15 ml growth medium (high glucose DMEM (Dulbecco's Modification of Eagle's Medium) supplemented with 10% FBS (fetal bovine serum), 100 ug/ml penicillin/streptomycin, 5 μg/ml blasticindin, and 100 μg/ml zeocin) in a 75 cm^2 flask for 3 days at 37° C. in a mammalian cell culture incubator set at 5% CO2 Cells were detached with addition of 2 ml of trypsin-EDTA buffer (GIBCO® 25200, Invitrogen, Grand Island, N.Y.) for about 2-3 min. Trypsin was inactivated by addition of 8 ml growth medium. Cells were transferred to a 50 ml tube and centrifuged at 850 rpm for 3 minutes to remove medium. After centrifugation, a pellet of cells was formed in the bottom of the tube separating them from the supernatant solution. The supernatant was discarded and the cell pellet was suspended in 1 ml of fresh growth medium to which 5 μl (12.5 μg) of Fluo-4 AM (Molecular Probes, Inc., Eugene, Oreg.) calcium indicator was added and incubated for 30 min with gentle shaking. Fluo-4 AM is a fluorescent dye used for quantifying cellular Ca^2+ concentrations in the 100 nM to 1 microM range. At the end of 30 minutes, 45 ml of assay buffer (1× HBSS (Hank's Balanced Salt Solution), 20 mM HEPES (4-(2-Hydroxyethyl)-1-piperazineethanesulfonic acid)) was added to wash cells and the resulting mixture was then centrifuged at 850 rpm for 3 minutes to remove excess buffer and Fluo-4 AM calcium indicator.
(§2) The pelleted cells were re-suspended in 10 ml assay buffer and 90 μl aliquots (˜50,000 cells) per well delivered to a 96-well assay plate containing 10 μl of test compounds (1 mM in assay buffer, […]) or buffer control and incubated at room temperature for 30 minutes. After 30 minutes, a plate was placed into a fluorometric imaging plate reader (FLIPR384 from Molecular Devices, Sunnyvale, Calif.) and basal fluorescence recorded (excitation wave length 488 nm and emission wave length 510 nm). Then 20 μl of […] of TRPM8 agonist WS5 coolant in the assay buffer was added and fluorescence recorded. For determining the direct effect of test compounds on TRPM8, fluorescence was measured immediately after addition of each compound (TABLES 2 and 3). Additional discussion of the FLIPR method can be found in Smart et al., Characterization using FLIPR of human vanilloid VR1 receptor pharmacology, European Journal of Pharmacology 417, 51-58 (2001) and Liu et al., Development and validation of a platelet calcium flux assay using a fluorescent imaging plate reader, Analytical Biochemistry 357, 216-224 (2006).
(§3) TRPM8 activation was determined by measuring intracellular calcium ion (Ca^2+) level from transfected cells with the TRPM8 receptor gene, as described in EXAMPLE 1, the results of which are shown in TABLES 4 and 5.

human TRPM8 [4] = experiment: TRPM8 Protocol-FLIPR Assay (intracellular Ca2+); type: cell-based; details: dose 30 uM
Method: as §1, §2, §3

[5] = test compound at 5.2E−5%, relative to Capsaicin control (350 nanoMolar), HEK 293 cells
[6] = test compound at 5.2E−5%, relative to Allyl Isothiocyanate control (50 microMolar), HEK 293 cells
[7] = test compound at 0.02%, relative to Capsaicin control (350 nanoMolar), HEK 293 cells
[8] = test compound at 0.02%, relative to Allyl Isothiocyanate control (50 microMolar), HEK 293 cells

T1 sequence (O75762 whole entry R3C/R58T/K186N): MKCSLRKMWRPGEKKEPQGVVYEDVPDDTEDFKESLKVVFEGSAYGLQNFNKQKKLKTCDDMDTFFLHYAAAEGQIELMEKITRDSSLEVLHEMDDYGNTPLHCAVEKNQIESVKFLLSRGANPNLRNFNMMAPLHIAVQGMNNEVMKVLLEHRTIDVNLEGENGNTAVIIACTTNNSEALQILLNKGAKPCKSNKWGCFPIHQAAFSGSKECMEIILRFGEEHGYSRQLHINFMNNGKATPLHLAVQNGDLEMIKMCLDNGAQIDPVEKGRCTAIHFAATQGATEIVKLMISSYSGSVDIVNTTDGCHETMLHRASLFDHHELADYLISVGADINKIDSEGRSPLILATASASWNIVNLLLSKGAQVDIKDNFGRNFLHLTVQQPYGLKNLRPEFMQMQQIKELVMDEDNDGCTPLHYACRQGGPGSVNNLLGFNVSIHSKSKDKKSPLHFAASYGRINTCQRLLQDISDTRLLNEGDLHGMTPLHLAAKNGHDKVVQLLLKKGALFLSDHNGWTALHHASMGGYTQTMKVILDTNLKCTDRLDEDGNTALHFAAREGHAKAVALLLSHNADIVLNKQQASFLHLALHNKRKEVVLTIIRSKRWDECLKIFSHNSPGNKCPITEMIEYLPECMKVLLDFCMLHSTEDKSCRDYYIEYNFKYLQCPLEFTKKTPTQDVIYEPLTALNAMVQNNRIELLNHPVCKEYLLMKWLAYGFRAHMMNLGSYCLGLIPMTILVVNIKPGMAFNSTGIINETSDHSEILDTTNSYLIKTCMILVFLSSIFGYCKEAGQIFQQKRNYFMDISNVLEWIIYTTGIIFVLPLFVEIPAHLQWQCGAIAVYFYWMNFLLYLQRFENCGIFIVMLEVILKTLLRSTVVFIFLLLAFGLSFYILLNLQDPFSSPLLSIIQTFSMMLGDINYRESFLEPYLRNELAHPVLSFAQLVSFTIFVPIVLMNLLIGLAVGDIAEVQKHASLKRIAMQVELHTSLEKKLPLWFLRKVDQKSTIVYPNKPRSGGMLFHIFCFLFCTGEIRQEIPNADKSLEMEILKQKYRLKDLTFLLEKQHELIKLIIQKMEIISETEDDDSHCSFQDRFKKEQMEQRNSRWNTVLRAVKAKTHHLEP

Compound: C=CCN=C=S [Allyl Isothiocyanate, reference compound]
Receptor Activity TRPA1 (human TRPA1; control agonist at 50 microMolar (reference = 100%)): 100%

Compound: COc1cc(CNC(=O)CCCC/C=C/C(C)C)ccc1O [Capsaicin, reference compound]
Receptor Activity TRPV1 (human TRPV1; control agonist at 350 nanoMolar (reference = 100%)): 100%

Compound: CC(C)[C@@H]1CC[C@@H](C)C[C@@H]1O [Compound 1-neomenthol, 1-neomenthol]
cooling threshold [1]: about 3,000 ppb

Compound: CC(C)[C@@H]1CC[C@@H](C)C[C@H]1C(=O)NCC(NC(=O)[C@@H](C)N)c1ccccc1 (stereo partly drawn) [Compound 28, Cyclohexane-carboxamide, N-[2-[[(2R)-2-amino-1-oxopropyl]amino]-2-phenylethyl]-5-methyl-2-(1-methylethyl)-, (1R,2S,5R)-*]
Receptor Activity TRPV1 (human TRPV1; [5]): 104.50%
Receptor Activity TRPA1 (human TRPA1; [6]): 242.50%
sensation (cooling, warming, burning) [2]: cooling sensations
mass efficiency relative to N-(4-cyanomethylphenyl)-p-menthanecarboxamide (human TRPM8 [3]; at a single concentration, TRPM8 activity vs WS5): 100 ×
Receptor Activity TRPM8 (human TRPM8 [3]; test compound at 5.2E−6%, relative to WS5 control (30 microMolar), HEK 293 cells): 130.42%
Receptor Activity TRPM8 (human TRPM8 [3]; test compound at 5.2E−6%, relative to WS5 control (30 microMolar), HEK 293 cells, listed as compound 28): 130%

Compound: CC(C)[C@@H]1CC[C@@H](C)C[C@H]1O [L-menthol]
cooling threshold [1]: about 800 ppb

Compound: CCOC(=O)CNC(=O)C1CC(C)CCC1C(C)C (stereo not shown) [WS5, N-ethoxycarbonylmethyl-ρ-menthan-3-carboxamide, reference compound]
Receptor Activity TRPM8 (human TRPM8 [3]; control agonist at 30 microMolar (reference = 100%)): 100%
TRPM8 Time Course Activity 50 sec % of WS5 (human TRPM8 [3]; dose 30 uM, 50 sec): 100.0%
TRPM8 Time Course Activity 50 sec (human TRPM8 [3]; dose 30 uM, fluorescence at 50 sec): 10059.7
TRPM8 Time Course Activity 50 sec % of WS5 (human TRPM8 [4]; 50 sec): 100.0%
TRPM8 Time Course Activity 3 min % of WS5 (human TRPM8 [4]; 3 min): 100.0%
TRPM8 Time Course Activity 5 min % of WS5 (human TRPM8 [4]; 5 min): 100.0%
TRPM8 Time Course Activity 10 min % of WS5 (human TRPM8 [4]; 10 min): 100.0%
TRPM8 Time Course Activity 50 sec (human TRPM8 [4]; fluorescence at 50 sec): 10059.7
TRPM8 Time Course Activity 3 min (human TRPM8 [4]; fluorescence at 3 min): 9449.3
TRPM8 Time Course Activity 5 min (human TRPM8 [4]; fluorescence at 5 min): 9468.0
TRPM8 Time Course Activity 10 min (human TRPM8 [4]; fluorescence at 10 min): 9576.0

Compound: CC(C)[C@@H]1CC[C@@H](C)C[C@@H]1O [d-neomenthol]
cooling threshold [1]: about 25,000 ppb

Further lines, with some results ahead:

Receptor Activity TRPV1 (human TRPV1; [5]): 16.24%
Receptor Activity TRPA1 (human TRPA1; [6]): 38.18%
Receptor Activity TRPM8 (human TRPM8 [3]; test compound at 5.2E−5%, relative to WS5 control (30 microMolar), HEK 293 cells): 109.70%
Compound: CC(C)[C@@H]1CC[C@@H](C)C[C@H]1C(=O)NCC(OCCN)c1ccccc1 (stereo partly drawn) [Compound 30, Cyclohexane-carboxamide, N-[2-(2-aminoethoxy)-2-phenylethyl]-5-methyl-2-(1-methylethyl)-, (1R,2S,5R)-*]
sensation (cooling, warming, burning) [2]: lack of sensation, cooling or warming

Receptor Activity TRPV1 (human TRPV1; test compound at 0.001%, relative to Capsaicin control (350 nanoMolar), HEK 293 cells): 0.01%
Receptor Activity TRPA1 (human TRPA1; test compound at 0.001%, relative to Allyl Isothiocyanate control (50 microMolar), HEK 293 cells): 68.02%
Receptor Activity TRPM8 (human TRPM8 [3]; test compound at 0.001%, relative to WS5 control (30 microMolar), HEK 293 cells): 108.80%
Receptor Activity TRPM8 (human TRPM8 [3]; test compound at 0.001%, relative to WS5 control (30 microMolar), HEK 293 cells, listed as N-(4-cyanomethylphenyl)-p-menthanecarboxamide): 109%
Compound: CC(C)[C@@H]1CC[C@@H](C)C[C@H]1C(=O)Nc1ccc(CC#N)cc1 [Compound 180, Cyclohexane-carboxamide, N-[4-(cyanomethyl)phenyl]-5-methyl-2-(1-methylethyl)-, (1R,2S,5R)-, reference compound]

Receptor Activity TRPV1 (human TRPV1; [7]): 92.07%
Receptor Activity TRPA1 (human TRPA1; [8]): 198.79%
Compound: CSc1ccc(NC(=O)[C@@H]2C[C@H](C)CC[C@H]2C(C)C)c(NCCN)c1 [Compound 773, Cyclohexane-carboxamide N-[2-[(2-aminoethyl)amino]-4-(methylthio)phenyl]-5-methyl-2-(1-methylethyl)-(1R,2S,5R)-*]
sensation (cooling, warming, burning) [2]: warming

Receptor Activity TRPV1 (human TRPV1; [7]): 60.5%
Receptor Activity TRPA1 (human TRPA1; [8]): 173.88%
Compound: CC(C)[C@@H]1CC[C@@H](C)C[C@H]1C(=O)Nc1ccc2ccccc2c1OCCN [Compound 777, Cyclohexane-carboxamide, N-[1-(2-aminoethoxy)-2-naphthalenyl]-5-methyl-2-(1-methylethyl)-, (1R,2S,5R)-*]
sensation (cooling, warming, burning) [2]: burning
sensation (cooling, warming, burning) ([2]; listed as test compound 777): burning sensation
